Data from patent publication US5001228A, “Bis-alkylamide azo polymerization initiators” (Wako Pure Chemical Industries, Ltd., priority 1988, dated 1991).

Assays:
[1] = Solubility (15° C.); type: physicochemical; settings: for Solubility in DMF: dimethylformamide (DMF); for solubility: water
[2] = Decomposition rate constant; type: physicochemical; settings: 80° C.

Row | Compound | Solubility in acetone [1] [%] | Solubility in DMF [1] [%] | Solubility in methanol [1] [%] | Solubility in toluene [1] [%] | solubility [1] [µg/mL] | Decomposition rate constant [2]
1 | CC(C)(N=NC(C)(C)C(=O)NCc1ccc(Cl)cc1)C(=O)NCc1ccc(Cl)cc1 [Compound (3), 2,2'-azobis[N-(p-chlorobenzyl)-2-methylpropionamide]] | ≥ 10 | ≥ 10 | ~5 | ≤ 1 | ≤ 10000 | 
2 | CC(C)(N=NC(C)(C)C(=O)NCc1cccnc1)C(=O)NCc1cccnc1 [Compound (4), 2,2'-azobis[N-[(pyridin-3-yl)methyl]-2-methylpropionamide]·2H2 O] | 3 | 1.5 | ≥ 10 |  | ≤ 10000 | 
3 | CC(C)(N=NC(C)(C)C(=O)NCc1ccncc1)C(=O)NCc1ccncc1 [Compound (5), 2,2'-azobis[N-[(pyridin-4-yl)methyl]-2-methylpropionamide]·2H2 O] | ≤ 1 | 3 | ~9 |  | ≤ 10000 | 
4 | C=CCNC(=O)C(C)(C)N=NC(C)(C)C(=O)NCC=C [Compound (2), 2,2'-azobis[N-(2-propenyl)-2-methylpropionamide]] | ≥ 10 | ≥ 10 | ≥ 10 | ≥ 10 | ≤ 10000 | 2.80 × 10^-6 sec.^-1

Continued, values first:

Row | Solubility in acetone [1] [%] | Solubility in DMF [1] [%] | Solubility in methanol [1] [%] | Solubility in toluene [1] [%] | solubility [1] [µg/mL] | Decomposition rate constant [2] | Compound
5 | ≤ 1 | 1.5 | ≥ 10 |  | ≥ 100000 |  | CC(C)(N=NC(C)(C)C(=O)NCCN1CCNCC1)C(=O)NCCN1CCNCC1 [Compound (7)]
6 | ≤ 1 | ≤ 1 | ≥ 10 | ≤ 1 | ≥ 100000 |  | CC(C)(N=NC(C)(C)C(=O)NCC1CCNCC1)C(=O)NCC1CCNCC1 [Compound (6), 2,2'-azobis[N-[(piperidin-4-yl)methyl]2-methylpropionamide]·2HCl]
